The results in this text go back to patent US6632981B1, “DNA sequences encoding polypeptides having beta-1,3-glucanase activity” (Novartis Finance Corporation, priority 1988, dated 2003).

Test [1] has as its system chimeric PR-1a/GUS gene. The test is described as follows: GUS induction in transformed carrot callus. The format is cell-based. Particulars: carrot callus transformed by pCIB271; 50 mM sodium salicylate or 250 g/l methyl ester spray; 21 hours; H2O spray 5.2. As to the method:
To surface sterilize the carrots they are peeled and then soaked 20 minutes in a 10% solution of chlorox. The carrots are rinsed with sterile water, sliced into 5 mm pieces and placed basal side up onto water agar. 20-50 l of bacteria are then applied to the upper surface of the discs. After 7 days the discs are transferred to 0.7% agar containing MS salts, 3% sucrose, 0.1 mg/l 2,4-D, […] kanamycin, 100 µg/ml carbenicillin, and 100 µg/ml mefoxin. Callus forming around the cambial ring is excised and placed on 0.7% MS agar supplemented with 3% sucrose, 0.1 mg/l 2,4-D, […] kanamycin, 100 µg/ml carbenicillin, and 100 µg/ml mefoxin. After the callus has been grown it is cut into small pieces and randomized onto four plates of the same media. […]
(§1) The reactions are carried out in the wells of ELISA plates by mixing 5-25 l extract with 120-100 l GUS assay buffer (50 mM sodium phosphate buffer pH 7.0, 0.1% Triton X-100, 10 mM β-mercaptoethanol) containing 4-methyl umbelliferyl glucuronide (MU) at a final concentration of 2 mM in a total volume of 125 l. […] The concentration of fluorescent indicator released is determined by reading the plate on a Flow Labs Fluoroskan II ELISA plate reader.

In test [2] the test system is chimeric PR-1a/GUS gene. The test is described as follows: GUS induction in transformed tomato callus. The format is cell-based. The following applies: 250 g/l spray, 21 hours. As to the method: Agrobacterium strains containing the appropriate vectors as described above (e.g. CIB270, CIB271, CIB272, CIB273, pCIB271×15955, pCIB271 X A208, pCIB271 X A281, pCIB271 X A4, pCIB272 X 15955, pCIB272 X A208, pCIB272 X A281, pCIB272 X A4, pCIB273 X 15955, pCIB273 X A208, pCIB273 X A281, and pCIB273 X A4) are grown as described in Example 112. The bacteria, diluted to an OD600 of 0.2-0.4, are then used for inoculation of stems of tomato seedlings prepared as described below.
Tomato seeds are soaked 20 min in 10% chlorox and rinsed with sterile water. […]
After one week the inoculated stems are cut and placed on 0.7% agar containing MS salts, 3% sucrose, […] 6-benzylaminopurine, 100 µg/ml carbenicillin, 100 µg/ml mefoxim, and 50 µg/ml kanamycin. […] The callus is transferred to fresh media every two weeks until sufficient quantity is obtained for 4 plates. […]
as §1

Test [3] relates to chimeric PR-1a/GUS gene. As to the kind of experiment: Transient GUS expression in tobacco protoplasts treated with pCIB269. In kind it is cell-based, N. tabacum. The following applies: H2O 30.6 13. As to the method:
B. DNA is introduced into protoplasts by a modification of the method of Negrutiu, I. et al., Plant Mol. Biol. 8: 363 (1987). The protoplasts prepared as described in part A are resuspended following the last washing step in a solution consisting of 0.4 M mannitol, 15-30 mM CaCl2, 0.1% w/v MES at a density of 1.6-2×10^6 per ml. The protoplast suspension is distributed as 0.5 ml aliquots into 10 ml plastic centrifuge tubes. DNA such as that described in Examples 28 to 40 is added in 10 l sterile distilled water, sterilized as described by Paszkowski, J. et al., EMBO J. 3: 2717 (1984), and then 0.5 ml of the PEG solution (40% (w/v) PEG MW 8000 in 0.4 M mannitol, 0.1 M Ca(NO3)2, pH 7.0) is added. The solutions are mixed gently and incubated for 30 minutes at room temperature (about 24° C.) with occasional shaking. 1 ml of the wash solution is then added, and the contents of the tube gently mixed. […]
as §1

Take `COC(=O)c1cccc2nnsc12` [Methyl benzo-1,2,3-thiadiazole-7-carboxylate]: the GUS activities is 22.1 pKat MU/mg protein in the test on chimeric PR-1a/GUS gene [1]; 56.1 pKat MU/mg protein in the test on chimeric PR-1a/GUS gene [2] (tomato callus transformed with CIB271, H2O spray 17.2); 22.1 pKat MU/mg protein in the test with chimeric PR-1a/GUS gene [2] (tomato callus transformed with CIB273 X A4, H2O spray 4.6). The “GUS activity, transient expression” value in the test on chimeric PR-1a/GUS gene [3] was determined as 66.6 pKat MU/mg protein.

In the test with chimeric PR-1a/GUS gene [1], `O=C(O)c1ccccc1O` [Salicylic acid, salicylic acid] gave a GUS activities of 11.6 pKat MU/mg protein.
